Reference: US4547488A, “Antibiotic M43D, pharmaceutical compositions and method of use” (priority 1984, dated 1985)
Values after ≈ are worked out from the molar mass of the structure shown.

What was measured:
Assay in all cases: agar-dilution MIC
Type in all cases: cell-based
[1] = test system: Streptococcus pyogenes C203
[2] = test system: Streptococcus faecium ATCC 9790
[3] = test system: Streptococcus sp. group D 2041
[4] = test system: Haemophilus influenzae C.L.
[5] = test system: Haemophilus influenzae 76
[6] = test system: Klebsiella pneumoniae X68
[7] = test system: Klebsiella pneumoniae KAE

CN[C@H](CC(C)C)C(=O)N[C@H]1C(=O)N[C@@H](CC(N)=O)C(=O)N[C@H]2C(=O)N[C@H]3C(=O)N[C@H](C(=O)N[C@H](C(=O)O)c4cc(O)cc(O)c4-c4cc3ccc4O)[C@H](O)c3ccc(c(Cl)c3)Oc3cc2cc(c3O[C@@H]2O[C@H](CO)[C@@H](O)[C@H](O)[C@H]2O[C@H]2C[C@](C)(N)[C@H](O)[C@H](C)O2)Oc2ccc(cc2Cl)[C@H]1O [Vancomycin]
MIC [1]: 0.5 µg/mL (≈ 0.345 µM) | MIC [2]: 1 µg/mL (≈ 0.69 µM) | MIC [3]: 4 µg/mL (≈ 2.76 µM) | MIC [4]: 64 µg/mL (≈ 44.2 µM) | MIC [5]: 128 µg/mL (≈ 88.3 µM) | MIC [6]: > 128 µg/mL | MIC [7]: > 128 µg/mL
